From patent publication US20240246918A1, “COMPOUNDS AND COMPOSITIONS AS EIF4E INHIBITORS AND THE USES THEREOF” (Ribometrix, Inc., priority 2022, published 2024) come the findings set out here.

Assay [1] addresses T1, human eIF4E protein (Homo sapiens, UniProt P06730).
T1 construct: purchased Novus NBP-45314
The assay is described as follows: Biochemical competitive binding assay (TR-FRET competition, EDA-m7GDP-ATTO-647N probe). The conditions noted are these: read-out: hEIF4E TR-FRET IC50. How it is done:
The potencies of compounds binding to human eIF4E protein were measured using a 384-well time-resolved fluorescence resonance energy transfer (TR-FRET) competition assay. The assay was performed in assay buffer containing 50 mM HTEPES pH 7.5, 100 mM KCl, 0.02% Tween-20, and 0.1 mg/mL bovine serum albumin (BSA). The reaction volume was 10 μL and each reaction contained 4 nM recombinant 6×HIS-tagged human EIF4E protein (Novus, NBP-45314), 5 nM EDA-m7GDP-ATTO-647N (Jena Bioscience, NU-827-647N), 2.5 nM Europium conjugated Anti-6×HIS antibody (PerkinElmer, AD0402) and varying concentrations of compound. The final DMSO concentration was […].
Compounds were prepared using 11-point, 4-fold serial dilutions in DMSO and 100 nL of diluted compounds were transferred to 384-well assay-ready plates. Recombinant human EIF4E protein at 2× final concentration (8 nM) was pre-incubated with Eu-anti-6×HIS antibody at 2× final concentration (5 nM) for 5 minutes, then 5 μL of the protein solution was added to assay-ready plates. The protein/compound mix was incubated for 15 minutes, after which 5 μL of a solution containing EDA-m7GDP-ATTO-647N probe at 2× final concentration (10 nM) was added. After a subsequent 15-minute incubation, time-resolved fluorescence of assay plates was measured using a Clariostar Plus microplate reader (BMG Labtech) and TR-FRET values were calculated by taking a ratio of the 665 to 620 wavelength signals. After normalization to the average of DMSO control and maximum inhibition control wells, concentration-response data were plotted and standard 4-parameter curve fitting (PEI Signals) was utilized to determine IC50 values.

Assay [2] concerns COLO 205 colorectal tumor cells. The assay is described as follows: Tumor cell viability inhibition assay (CellTiter-Glo 2.0, 72 hours). The class given is cell-based. The conditions noted are these: COLO 205 cell viability. How it is done: The effect of compound treatment on COLO 205 tumor cell viability was assessed using cellular ATP quantification methods (Promega CellTiter-Glo® 2.0, G9241), as follows. Test compounds were prepared using 11-point, 4-fold serial dilutions in DMSO and 100 nL of diluted compounds were transferred to 384-well assay-ready plates. COLO 205 (ATCC, CCL-222) colorectal tumor cells were seeded to assay-ready plates in RPMI-1640 medium supplemented with 10% FBS at 1500 cells in a volume of 33.5 microliters per well. After 72 hours of compound treatment, cellular ATP was assessed by CellTiter-Glo® 2.0 Cell Viability Assay method, according to the manufacturer's instructions. Luminescence was measured using a Clariostar Plus microplate reader (BMG Labtech) or equivalent. After normalization to the average of DMSO control and maximum inhibition control wells, concentration-response data were plotted and standard 4-parameter curve fitting (PEI Signals) was utilized to determine IC50
(Cellular ATP, detected with luciferase, serves as a proxy for viable cell number.)

Structures are written as SMILES.

T1 sequence (P06730 whole entry): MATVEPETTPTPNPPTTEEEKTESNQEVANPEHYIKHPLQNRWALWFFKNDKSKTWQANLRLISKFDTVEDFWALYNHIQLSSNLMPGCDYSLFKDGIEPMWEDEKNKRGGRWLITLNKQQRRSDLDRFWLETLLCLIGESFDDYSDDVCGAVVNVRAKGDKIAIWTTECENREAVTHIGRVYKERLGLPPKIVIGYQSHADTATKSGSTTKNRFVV

For orientation: IC50 means the concentration that gives 50% inhibition. Turning to `Cc1csc(C2CCN([C@@H]3CCc4nc(C)n(CCOc5ccc(Cl)cc5-c5cc(C)nc6c(C(=O)O)csc56)c(=O)c4C3)CC2)n1` (single isomer, unassigned) [Compound 429], the IC50 is below 100 nM in assay [1] and below 5 µM in assay [2] (Homo sapiens, COLO 205, 72 h).
With `Cc1cc(-c2cc(Cl)ccc2OCCn2c(C)nc3c(c2=O)C[C@@](C)(N2CCC[C@@]4(C2)CC4(F)F)CC3)c2scc(C(=O)O)c2n1` (single isomer, unassigned) [Compound 555], the IC50 in assay [1] was in the range of 100 to 500 nM; in assay [2] (Homo sapiens, COLO 205, 72 h), 5 to 20 µM.
Turning to `Cc1cc(-c2cc(Cl)ccc2OCCn2c(C)nc3c(c2=O)C[C@H](N2CCC(c4cnc(C(F)(F)F)nc4)CC2)CC3)c2scc(C(=O)O)c2n1` (single isomer, unassigned) [Compound 584], the IC50 in assay [1] is below 100 nM; in assay [2] (Homo sapiens, COLO 205, 72 h) it was 5 to 20 µM.
On to `Cc1cc(-c2cc(Cl)ccc2OCCn2c(C)nc3c(c2=O)C[C@@H](N2CCC[C@@H](c4ncccc4F)C2)CC3)c2scc(C(=O)O)c2n1` (single isomer, unassigned) [Compound 466], for which the IC50 in assay [1] was below 100 nM; in assay [2] (Homo sapiens, COLO 205, 72 h), below 5 µM.
`Cc1cc(-c2cc(Cl)ccc2OCCn2c(C)nc3c(c2=O)CC(C)(N2CCC(C(F)(F)F)CC2)CC3)c2scc(C(=O)O)c2n1` (single isomer, unassigned) [Compound 530]: the IC50 in assay [1] was below 100 nM; in assay [2] (Homo sapiens, COLO 205, 72 h) it was below 5 µM.
With `Cc1cc(-c2cc(Cl)c(=O)[nH]c2OCCn2c(C)nc3c(c2=O)CC(N(C)CC2CC(F)(F)C2)CC3)c2scc(C(=O)O)c2n1` (single isomer, unassigned) [Compound 238], the results for the IC50 in assay [1] and in assay [2] were 500 to 5000 nM and above 20 µM, respectively.
In the same order, the values of `Cc1cc(-c2cc(Cl)ccc2OCCn2c(C)nc3c(c2=O)CC(CN(C)C)(N2CCC(OC(F)(F)F)CC2)CC3)c2scc(C(=O)O)c2n1` (single isomer, unassigned) [Compound 621] are 100 to 500 nM and above 20 µM.
In the case of `Cc1cc(-c2cc(Cl)ccc2OCCn2c(C)nc3c(c2=O)C[C@@H](N2CCCC[C@H]2C(F)(F)F)CC32CC2)c2scc(C(=O)O)c2n1` (single isomer, unassigned) [Compound 630], the IC50 was below 100 nM in assay [1] and 5 to 20 µM in assay [2] (Homo sapiens, COLO 205, 72 h).
Taken in the same sequence, the figures for `Cc1cc(-c2cc(Cl)ccc2OCCn2c(C)nc3c(c2=O)C[C@H](N2[C@@H]4CC[C@H]2C[C@H](OC(F)(F)F)C4)CC3)c2scc(C(=O)O)c2n1` (single isomer, unassigned) [Compound 399] were below 100 nM and below 5 µM.
For the molecule `Cc1cc(-c2cc(Cl)ccc2OCCn2c(C)nc3c(c2=O)CC(C)(N(C)CC2CC(F)(F)C2)CC3)c2scc(C(=O)O)c2n1` (single isomer, unassigned) [Compound 599], the half-maximal inhibitory concentration (IC50) in assay [1] was below 100 nM; in assay [2] (Homo sapiens, COLO 205, 72 h), 5 to 20 µM.
For the molecule `COC1(C(F)(F)F)CCN([C@@H]2CCc3nc(C)n(CCOc4ccc(Cl)cc4-c4cc(C)nc5c(C(=O)O)csc45)c(=O)c3C2)CC1` (single isomer, unassigned) [Compound 450], the IC50 was below 100 nM in assay [1] and below 5 µM in assay [2] (Homo sapiens, COLO 205, 72 h).
On to `CO[C@H](C1CCN([C@H]2CCc3nc(C)n(CCOc4ccc(Cl)cc4-c4cc(C)nc5c(C(=O)O)csc45)c(=O)c3C2)CC1)C(F)(F)F` (single isomer, unassigned) [Compound 563], for which the IC50 in assay [1] was below 100 nM; in assay [2] (Homo sapiens, COLO 205, 72 h) it was below 5 µM.
For `Cc1cc(-c2cc(Cl)ccc2OCCn2c(C)nc3c(c2=O)C[C@@H](N2CCC(Oc4ccc(F)cc4F)CC2)CC32CC2)c2scc(C(=O)O)c2n1` (single isomer, unassigned) [Compound 613], the IC50 in assay [1] was below 100 nM; in assay [2] (Homo sapiens, COLO 205, 72 h) it was below 5 µM.
